Like-named read-outs stand apart in the source and are kept apart here.
Key:
[1] = 7.5% solution; cited from earlier work
[2] = tested on: chemically induced inflammatory bowel reaction with bowel wall thickening or fibrosis; assay: Colon fibrosis (weight of 8 cm of colon) after intrarectal TNB/ethanol in rats; format: in vivo; conditions: for Colon fibrosis (as measured by weight of 8 cm of colon), mean ± SEM: rats
Source text: In animal models of inflammatory bowel disease the colon becomes fribrotic, as does the peritoneum as a result of chronic intraperitoneal dialysis. […] It is to be expected that in a similar manner NAG will prevent the development of fibrosis of the peritoneum in CAPD patients. [table]

peritoneal membrane = format: in vivo, rats; conditions: for Hyaluronic Acid in Dialysate Fluid / Mass Transfer Area Coef for Urea / Peritoneal Clearance of Urea: 4 hours dwell; for Net Ultrafiltration: pH 7.35-7.4, 4 hours dwell, 20 mL infused
Procedure: In experiments in which rats were dialyzed for 4 hours with Hanks Balances salt solution with either glucose or N-acetylglucosamine added at a concentration of 75 mM or 214 mM, at a pH of 7.35-7.4. The net utrafiltration was calculated as the difference between the drained volume of dialysate after 4 hours dwell time in the peritoneal cavity and the infused volume (20 mL) of the dialysis fluid. As well, the concentration of urea and creatinine in the blood and the dialysis fluid were measured. Permeability of the peritoneal membrane to urea and creatinine, expressed as the Mass Transfer Area Coefficient which was calculated according to the method of Krediet et al (Blood Purif 4: 194, 1986). […] In addition, the inclusion of NAG in the dialysate fluid stimulated the synthesis of hyaluronic acid, as shown by the more than 100% increase in amount of hyaluronic acid secreted in the dialysis fluid compared to the glucose treated rats.

human mesothelial cells = assay: Stimulation of hyaluronic acid in tissue culture of human mesothelial cells; format: cell-based
[3] = versus glucose, rats dialyzed 4 hours

Row | Compound | Osmolality [1] | pH of solution [1] | Colon fibrosis (as measured by weight of 8 cm of colon), mean ± SEM ([2]; 25 mg NAG/kg BWt intrarectal 1 hr before TNB/EtOH) | Colon fibrosis (as measured by weight of 8 cm of colon), mean ± SEM ([2]; 50 mg NAG/kg BWt intrarectal 1 hr before TNB/EtOH) | Colon fibrosis (as measured by weight of 8 cm of colon), mean ± SEM ([2]; 100 mg NAG/kg BWt intrarectal 1 hr before TNB/EtOH) | Fibrotic reaction to the inflammatory stimulus ([2]; solution of NAG administered into the bowel of rats) | Hyaluronic Acid in Dialysate Fluid (peritoneal membrane; 75 mM in dialysis fluid) | Mass Transfer Area Coef for Urea (peritoneal membrane; 75 mM in dialysis fluid) | Peritoneal Clearance of Urea (peritoneal membrane; 75 mM in dialysis fluid) | Net Ultrafiltration (peritoneal membrane; 75 mM in dialysis fluid) | Hyaluronic Acid in Dialysate Fluid (peritoneal membrane; 214 mM in dialysis fluid) | Mass Transfer Area Coef for Urea (peritoneal membrane; 214 mM in dialysis fluid) | Peritoneal Clearance of Urea (peritoneal membrane; 214 mM in dialysis fluid) | Net Ultrafiltration (peritoneal membrane; 214 mM in dialysis fluid) | Increase in amount of hyaluronic acid secreted in the dialysis fluid (peritoneal membrane; compared to the glucose treated rats) | Albumin or total protein loss into the dialysis fluid (in words) (peritoneal membrane; rat, in vivo) | Net ultrafiltration (in words) (peritoneal membrane; [3]) | Peritoneal clearance of urea (in words) (peritoneal membrane; [3]) | Stimulation of hyaluronic acid (human mesothelial cells)
1 | Icodextrin | 282 mOsm/kg | 5.3 |  |  |  |  |  |  |  |  |  |  |  |  |  |  |  |  | 
2 | CC(=O)N[C@H]1C(O)O[C@H](CO)[C@@H](O)[C@@H]1O (stereo partly shown) [NAG, N-acetylglucosamine] |  |  | 1.669 ± 0.142 gm | 1.339 ± 0.155 gm | 1.150 ± 0.068 gm | reduces in a dose dependent manner | 226 ± 93 µg/L | 0.287 ± 0.13 mL/min | 18.4 ± 2.1 mL/min | −0.11 ± 1.6 mL/4 hrs | 217 µg/L | 0.262 ± 0.15 mL/min | 30.0 mL/min | 14.45 mL/4 hrs | more than 100% | without increasing | statistically significant increase | statistically significant increase | stimulation of hyaluronic acid by N-acetylglucosamine was confirmed

Source: US6812222B1, “Biocompatible aqueous solution for use in continuous ambulatory peritoneal dialysis” (priority 1995, dated 2004)
